ChEMBL document CHEMBL1201862, “PubChem BioAssay data set” (2004)
“And” between values parts separate entries of the source, which are not always exact repeats. Equal values may be shown once.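 Values below derive from 48-hour exposures of cells grown in 96-well plates, with endpoints linearly interpolated between the two concentrations bracketing the appropriate inhibition level. GI50 marks 50% less growth.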 The source made the active and inactive calls. Cut-off read from the data, not from the text of the source: active = GI50 up to about 1.1 µM and inactive = higher.

What was measured:
Experiment in all cases: NCI-60 cell line screen, 48 h
[1] = test system: 786-0
[2] = test system: A498
[3] = test system: A549
[4] = test system: ACHN
[5] = test system: CCRF-CEM
[6] = test system: COLO 205
[7] = test system: DU-145
[8] = test system: EKVX
[9] = test system: HCC 2998
[10] = test system: HCT-116
[11] = test system: HCT-15
[12] = test system: HL-60
[13] = test system: HOP-62
[14] = test system: HOP-92
[15] = test system: HT-29
[16] = test system: IGROV-1
[17] = test system: K562
[18] = test system: KM12
[19] = test system: LOX IMVI
[20] = test system: M14
[21] = test system: MCF7
[22] = test system: MDA-MB-231
[23] = test system: MDA-MB-435
[24] = test system: MOLT-4
[25] = test system: Malme-3M
[26] = test system: NCI-H226
[27] = test system: NCI-H23
[28] = test system: NCI-H460
[29] = test system: NCI/ADR-RES
[30] = test system: OVCAR-4
[31] = test system: OVCAR-5
[32] = test system: OVCAR-8
[33] = test system: RPMI-8226
[34] = test system: RXF 393
[35] = test system: SF-268
[36] = test system: SF-295
[37] = test system: SF-539
[38] = test system: SK-MEL-28
[39] = test system: SK-MEL-5
[40] = test system: SK-OV-3
[41] = test system: SN12C
[42] = test system: SNB-19
[43] = test system: SNB-75
[44] = test system: SR
[45] = test system: SW-620
[46] = test system: T47D
[47] = test system: TK-10
[48] = test system: U-251
[49] = test system: UACC-257
[50] = test system: UACC-62
[51] = test system: UO-31
[52] = test system: CAKI-1
[53] = test system: MDA-N
[54] = test system: PC-3
[55] = test system: SK-MEL-2
[56] = test system: OVCAR-3
[57] = test system: Hs-578T
[58] = test system: NCI-H522

## O=C1NC2(CCN(CCCC3(c4ccc(F)cc4)OCCO3)CC2)Oc2ccccc21
[1]
  GI50: > 100 µM (inactive)
[2]
  GI50: 21.3 µM (inactive)
[3]
  GI50: > 100 µM (inactive)
[4]
  GI50: > 100 µM (inactive)
[5]
  GI50: > 100 µM (inactive)
[6]
  GI50: 86.7 µM (inactive)
[7]
  GI50: > 100 µM (inactive)
[8]
  GI50: 39.4 µM (inactive)
[9]
  GI50: > 100 µM (inactive)
[10]
  GI50: > 100 µM (inactive)
[11]
  GI50: 71.4 µM
[12]
  GI50: 42.7 µM (inactive)
[13]
  GI50: > 100 µM (inactive)
[14]
  GI50: 23.7 µM (inactive)
[15]
  GI50: 42.4 µM (inactive)
[16]
  GI50: > 100 µM (inactive)
[17]
  GI50: 64.4 µM (inactive)
[18]
  GI50: > 100 µM (inactive)
[19]
  GI50: > 100 µM (inactive)
[20]
  GI50: 73.5 µM (inactive)
[21]
  GI50: 86.7 µM (inactive)
[22]
  GI50: > 100 µM (inactive)
[23]
  GI50: > 100 µM (inactive)
[24]
  GI50: 51.8 µM (inactive)
[25]
  GI50: > 100 µM (inactive)
[26]
  GI50: > 100 µM (inactive)
[27]
  GI50: > 100 µM (inactive)
[28]
  GI50: 91.2 µM (inactive)
[29]
  GI50: 97.9 µM (inactive)
[30]
  GI50: > 100 µM (inactive)
[31]
  GI50: > 100 µM (inactive)
[32]
  GI50: > 100 µM (inactive)
[33]
  GI50: 61 µM (inactive)
[34]
  GI50: > 100 µM (inactive)
[35]
  GI50: > 100 µM (inactive)
[36]
  GI50: > 100 µM (inactive)
[37]
  GI50: 42.9 µM (inactive)
[38]
  GI50: > 100 µM (inactive)
[39]
  GI50: 69.5 µM (inactive)
[40]
  GI50: > 100 µM (inactive)
[41]
  GI50: > 100 µM (inactive)
[42]
  GI50: > 100 µM (inactive)
[43]
  GI50: 43.1 µM (inactive)
[44]
  GI50: 39.7 µM (inactive)
[45]
  GI50: > 100 µM (inactive)
[46]
  GI50: 35.8 µM (inactive)
[47]
  GI50: > 100 µM (inactive)
[48]
  GI50: > 100 µM (inactive)
[49]
  GI50: 57.3 µM (inactive)
[50]
  GI50: > 100 µM (inactive)
[51]
  GI50: 12.7 µM (inactive)

## COc1ccc(C(CC(=O)c2ccccc2)C(=O)c2ccc3c(c2)OCO3)cc1 (stereo unspecified)
[1]
  GI50: > 100 µM (inactive)
[2]
  GI50: > 100 µM (inactive)
[3]
  GI50: > 100 µM (inactive)
[4]
  GI50: > 100 µM (inactive)
[52]
  GI50: > 100 µM (inactive)
[5]
  GI50: > 100 µM (inactive)
[6]
  GI50: > 100 µM (inactive)
[7]
  GI50: > 100 µM (inactive)
[8]
  GI50: > 100 µM (inactive)
[9]
  GI50: > 100 µM (inactive)
[11]
  GI50: > 100 µM
[12]
  GI50: > 100 µM (inactive)
[13]
  GI50: > 100 µM (inactive)
[16]
  GI50: > 100 µM (inactive)
[17]
  GI50: > 100 µM (inactive)
[18]
  GI50: > 100 µM (inactive)
[20]
  GI50: > 100 µM (inactive)
[21]
  GI50: > 100 µM (inactive)
[22]
  GI50: > 100 µM (inactive)
[23]
  GI50: > 100 µM (inactive)
[53]
  GI50: > 100 µM (inactive)
[24]
  GI50: > 100 µM (inactive)
[25]
  GI50: 79.3 µM (inactive)
[26]
  GI50: > 100 µM (inactive)
[27]
  GI50: > 100 µM (inactive)
[28]
  GI50: > 100 µM (inactive)
[29]
  GI50: > 100 µM (inactive)
[30]
  GI50: > 10 µM (inactive)
[32]
  GI50: > 100 µM (inactive)
[54]
  GI50: > 100 µM (inactive)
[33]
  GI50: > 100 µM (inactive)
[35]
  GI50: > 100 µM (inactive)
[36]
  GI50: > 100 µM (inactive)
[38]
  GI50: > 100 µM (inactive)
[55]
  GI50: > 100 µM (inactive)
[39]
  GI50: > 100 µM (inactive)
[40]
  GI50: > 100 µM (inactive)
[41]
  GI50: > 100 µM (inactive)
[42]
  GI50: > 100 µM (inactive)
[43]
  GI50: > 100 µM (inactive)
[44]
  GI50: > 100 µM (inactive)
[45]
  GI50: > 100 µM (inactive)
[46]
  GI50: 77.3 µM (inactive)
[47]
  GI50: > 100 µM (inactive)
[48]
  GI50: > 100 µM (inactive)
[49]
  GI50: > 100 µM (inactive)
[50]
  GI50: > 100 µM (inactive)
[51]
  GI50: > 100 µM (inactive)

## CC[C@H](CCCCC1CC[C@@H]2CC(=O)C[C@H]12)OC (stereo partly specified)
[2]
  GI50: > 100 µM (inactive)
[3]
  GI50: > 100 µM (inactive)
[7]
  GI50: > 100 µM (inactive)
[8]
  GI50: > 100 µM (inactive)
[11]
  GI50: > 100 µM
[21]
  GI50: > 100 µM (inactive)
[53]
  GI50: > 100 µM (inactive)
[56]
  GI50: > 100 µM (inactive)
[31]
  GI50: > 100 µM (inactive)
[54]
  GI50: > 100 µM (inactive)
[34]
  GI50: > 100 µM (inactive)
[35]
  GI50: > 100 µM (inactive)
[36]
  GI50: > 100 µM (inactive)
[38]
  GI50: > 100 µM (inactive)
[41]
  GI50: > 100 µM (inactive)
[45]
  GI50: > 100 µM (inactive)
[48]
  GI50: > 100 µM (inactive)
[51]
  GI50: 93.8 µM (inactive)

## CC(=O)OCC1OC(Sc2nc(-c3ccc(Cl)cc3)c(C#N)c(=O)n2C2OC(COC(C)=O)C(OC(C)=O)C(OC(C)=O)C2OC(C)=O)C(OC(C)=O)C(OC(C)=O)C1OC(C)=O (stereo unspecified)
[12]
  GI50: 3.82 µM (inactive)
[24]
  GI50: 50.4 µM (inactive) and > 26.4 µM (inactive)
[30]
  GI50: 3.45 µM (inactive)
[33]
  GI50: 35.9 µM (inactive)
[44]
  GI50: 30.3 µM (inactive)

## Cc1nnc2sc(-c3ccc(N)cc3)nn12
[1]
  GI50: > 100 µM (inactive)
[3]
  GI50: > 100 µM (inactive)
[4]
  GI50: > 100 µM (inactive)
[52]
  GI50: > 100 µM (inactive)
[5]
  GI50: > 100 µM (inactive)
[6]
  GI50: > 100 µM (inactive)
[7]
  GI50: > 100 µM (inactive)
[8]
  GI50: > 100 µM (inactive)
[9]
  GI50: > 100 µM (inactive)
[10]
  GI50: > 100 µM (inactive)
[11]
  GI50: > 100 µM
[12]
  GI50: > 100 µM (inactive)
[13]
  GI50: > 100 µM (inactive)
[14]
  GI50: > 100 µM (inactive)
[15]
  GI50: > 100 µM (inactive)
[57]
  GI50: 89.3 µM (inactive)
[16]
  GI50: > 100 µM (inactive)
[17]
  GI50: > 100 µM (inactive)
[18]
  GI50: > 100 µM (inactive)
[20]
  GI50: > 100 µM (inactive)
[21]
  GI50: > 100 µM (inactive)
[22]
  GI50: > 100 µM (inactive)
[23]
  GI50: > 100 µM (inactive)
[24]
  GI50: > 100 µM (inactive)
[25]
  GI50: > 100 µM (inactive)
[26]
  GI50: > 100 µM (inactive)
[27]
  GI50: > 100 µM (inactive)
[28]
  GI50: > 100 µM (inactive)
[58]
  GI50: > 100 µM (inactive)
[29]
  GI50: > 100 µM (inactive)
[56]
  GI50: > 100 µM (inactive)
[30]
  GI50: > 100 µM (inactive)
[31]
  GI50: > 100 µM (inactive)
[32]
  GI50: > 100 µM (inactive)
[54]
  GI50: > 100 µM (inactive)
[33]
  GI50: > 100 µM (inactive)
[34]
  GI50: > 100 µM (inactive)
[35]
  GI50: > 100 µM (inactive)
[36]
  GI50: > 100 µM (inactive)
[37]
  GI50: > 100 µM (inactive)
[38]
  GI50: > 100 µM (inactive)
[55]
  GI50: > 100 µM (inactive)
[39]
  GI50: > 100 µM (inactive)
[40]
  GI50: > 100 µM (inactive)
[41]
  GI50: > 100 µM (inactive)
[42]
  GI50: > 100 µM (inactive)
[43]
  GI50: 21.3 µM (inactive)
[44]
  GI50: > 100 µM (inactive)
[45]
  GI50: > 100 µM (inactive)
[46]
  GI50: > 100 µM (inactive)
[47]
  GI50: > 100 µM (inactive)
[49]
  GI50: > 100 µM (inactive)
[50]
  GI50: > 100 µM (inactive)
[51]
  GI50: > 100 µM (inactive)
